Experimental data as given in US8809342B2, “Glucagon receptor modulators” (Pfizer Inc., priority 2010, dated 2014).

Target: T1, human glucagon receptor (Homo sapiens, UniProt P47871)
T1 construct: expressed in transfected cells; host or cells: CHO-K1 cells, stably transfected
Experiment: Glucagon cAMP assay (Cisbio cAMP detection)
Type: cell-based
Description: The Cisbio cAMP detection assay is used to determine the ability of punitive glucagon antagonist to block glucagon induced cAMP production. Potential glucagon antagonists are re-suspended and diluted in 100% DMSO. Prior to use in the Glucagon cAMP assay 100×DMSO compound stocks are diluted 20× with DMEM-F12 media (Invitrogen) containing either 0.1% or 4% BSA. 2 uls of 5× compound stocks are spotted into the appropriate wells of low binding white solid bottom 384 well plates (Corning). 2 uls of 5% DMSO or known glucagon antagonist are added to each plate to define the assay window. CHOK1 cells stably transfected with the human glucagon receptor are removed from culture flasks with cell dissociation buffer. Cell pellets are re-suspended, at a concentration of 8.3e^5 cells/ml in DMEM-F12 with or without 4% BSA and 200 uM IBMX. 6 uls of cell suspensions are added to the assay plates. Plates are incubated for 20 min at room temperature prior to the addition of a 100 pM challenge dose of glucagon. On a separate plate glucagon dose response curves are run to determine the EC50 of glucagon. After a 30 min room temperature incubation the reaction is terminated by the addition of lysis buffer containing the cAMP detection reagents. Plates are incubated for an additional 60 min at room temperature prior to being read on the Perkin Elmer fluorescent plate reader. Raw is converted to nM of cAMP produced based on a cAMP standard curve. Converted data is then analyzed using the Pfizer data analysis program. IC50 values are determined from the generated sigmoidal dose response curves. Kb values are the calculated using a modified Cheng-Prusoff equation.

T1 sequence (P47871 26-477): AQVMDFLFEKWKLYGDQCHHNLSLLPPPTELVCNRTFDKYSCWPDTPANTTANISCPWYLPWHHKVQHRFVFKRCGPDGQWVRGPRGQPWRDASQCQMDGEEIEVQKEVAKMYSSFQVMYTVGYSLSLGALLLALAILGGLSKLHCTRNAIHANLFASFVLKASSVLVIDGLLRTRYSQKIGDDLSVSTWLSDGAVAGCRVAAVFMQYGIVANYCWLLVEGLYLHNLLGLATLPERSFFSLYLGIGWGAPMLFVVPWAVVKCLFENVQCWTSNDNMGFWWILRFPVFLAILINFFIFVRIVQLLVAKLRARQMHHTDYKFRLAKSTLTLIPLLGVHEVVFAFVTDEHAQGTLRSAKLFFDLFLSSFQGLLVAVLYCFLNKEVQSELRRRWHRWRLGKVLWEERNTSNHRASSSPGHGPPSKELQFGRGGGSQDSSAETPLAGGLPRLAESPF

Structure (SMILES) | Kb [nM]
Cc1ccc(-c2ccc(C(CC(C)C)Nc3ccc(C(=O)NCCC(=O)O)cn3)cc2)cc1 (racemic) [Example 1.50, (+/−)-3-(6-(3-methyl-1-(4′-methylbiphenyl-4-yl)butylamino)nicotinamido)propanoic acid] | 70
COc1ccccc1-c1ccc(C(CC(C)C)Nc2ccc(C(=O)NCCC(=O)O)cn2)cc1 (racemic) [Example 1.43, (+/−)-3-(6-(1-(2′-methoxybiphenyl-4-yl)-3-methylbutylamino)nicotinamido)propanoic acid] | 190
CC(C)CC(Nc1ncc(C(=O)NCCC(=O)O)cn1)c1ccc(-c2ccc(C(F)(F)F)cc2)cc1 (single isomer, unassigned; isomer 2) [Example 1.6, 3-(2-(3-methyl-1-(4′-(trifluoromethyl)biphenyl-4-yl)butylamino)pyrimidine-5-carboxamido)propanoic acid, Isomer 2] | 210
COc1cccc(-c2ccc(C(CC(C)C)Nc3ccc(C(=O)NCCC(=O)O)cn3)cc2)c1 (racemic) [Example 1.47, (+/−)-3-(6-(1-(3′-methoxybiphenyl-4-yl)-3-methylbutylamino)nicotinamido)propanoic acid] | 180
Cc1cc(C(CC(C)C)Nc2ccc(C(=O)NCCC(=O)O)cn2)cc(C)c1-c1ccc(C(F)(F)F)cc1 (racemic) [Example 1.28, (+/−)-3-(6-(1-(2,6-dimethyl-4′-(trifluoromethyl)biphenyl-4-yl)-3-methylbutylamino)nicotinamido)propanoic acid] | 83
CC(C)CC(Nc1ccc(C(=O)NCCC(=O)O)cn1)c1ccc(-c2ccc(OC(F)(F)F)cc2)cc1 (racemic) [Example 1.58, (+/−)-3-(6-(3-methyl-1-(4′-(trifluoromethoxy)biphenyl-4-yl)butylamino)nicotinamido)propanoic acid] | 120
O=C(O)CCNC(=O)c1ccc(NC(c2ccc(-c3ccc(C(F)(F)F)cc3)cc2)C2CCC2)nc1 (racemic) [Example 1.32, (+/−)-3-(6-(cyclobutyl(4′-(trifluoromethyl)biphenyl-4-yl)methylamino)nicotinamido)propanoic acid] | 610
CC(C)CC(Oc1ccc(C(=O)NCCC(=O)O)cn1)c1ccc(-c2ccc(C(F)(F)F)cc2)cc1 (racemic) [Example 3.2, (+/−)-3-(6-(3-methyl-1-(4′-(trifluoromethyl)biphenyl-4-yl)butoxy)nicotinamido)propanoic acid] | 1900
CC(C)C[C@H](Nc1ccc(C(=O)NCCC(=O)O)cn1)c1ccc(-c2ccc(C(F)(F)F)cc2)cc1 [Example 1.3, (−)-(S)-3-(6-(3-methyl-1-(4′-(trifluoromethyl)biphenyl-4-yl)butylamino)nicotinamido)propanoic acid] | 73
Cc1cccc(C)c1-c1ccc(C(CC(C)C)Nc2ccc(C(=O)NCCC(=O)O)cn2)cc1 (racemic) [Example 1.48, (+/−)-3-(6-(1-(2′,6′-dimethylbiphenyl-4-yl)-3-methylbutylamino)nicotinamido)propanoic acid] | 1200
O=C(O)CCNC(=O)c1ccc(NC(c2ccc(-c3ccc(C(F)(F)F)cc3)cc2)C2CCCC2)nc1 (racemic) [Example 1.35, (+/−)-3-(6-(cyclopentyl(4′-(trifluoromethyl)biphenyl-4-yl)methylamino)nicotinamido)propanoic acid] | 50
CCCC(Nc1ccc(C(=O)NCCC(=O)O)cn1)c1ccc(-c2ccc(C(F)(F)F)cc2)cc1 (single isomer, unassigned; isomer 2) [Example 1.9, 3-(6-(1-(4′-(trifluoromethyl)biphenyl-4-yl)butylamino)nicotinamido) propanoic acid, Isomer 2] | 130
CCOc1ccc(-c2ccc(C(CC(C)C)Nc3ccc(C(=O)NCCC(=O)O)cn3)cc2)cc1 (racemic) [Example 1.46, (+/−)-3-(6-(1-(4′-ethoxybiphenyl-4-yl)-3-methylbutylamino)nicotinamido)propanoic acid] | 92
CC(C)CC(Nc1ncc(C(=O)NCCC(=O)O)cn1)c1ccc(-c2ccc(C(F)(F)F)cc2)cc1 (racemic) [Example 1.4, (+/−)-3-(2-(3-methyl-1-(4′-(trifluoromethyl)biphenyl-4-yl)butylamino)pyrimidine-5-carboxamido)propanoic acid] | 560
CC(C)CC(Nc1cnc(C(=O)NCCC(=O)O)cn1)c1ccc(-c2ccc(C(F)(F)F)cc2)cc1 (single isomer, unassigned; isomer 1) [Example 1.17, 3-(5-(3-methyl-1-(4′-(trifluoromethyl)biphenyl-4-yl)butylamino)pyrazine-2-carboxamido)propanoic acid, Isomer 1] | 1100
CC(C)CC(Nc1ccc(C(=O)NCCS(=O)(=O)O)cn1)c1ccc(-c2ccc(C(F)(F)F)cc2)cc1 (racemic) [Example 1.22, (+/−)-2-(6-(3-methyl-1-(4′-(trifluoromethyl)biphenyl-4-yl)butylamino)nicotinamido) ethanesulfonic acid] | 6700

More lines, now with the values ahead:

Kb [nM] | Structure (SMILES)
110 | O=C(O)CCNC(=O)c1ccc(NC(CC2CC2)c2ccc(-c3ccc(C(F)(F)F)cc3)cc2)nc1 (centres unmarked) [Example 4.14, 3-(6-(2-cyclopropyl-1-(4′-(trifluoromethyl)biphenyl-4-yl)ethylamino)nicotinamido)propanoic acid]
730 | CC(C)CC(Nc1ccc(-c2ccc(C(F)(F)F)cc2)cc1)c1ccc(C(=O)NCc2nnn[nH]2)cn1 (racemic) [Example 2.12, (+/−)-N-((1H-tetrazol-5-yl)methyl)-6-(3-methyl-1-(4′-(trifluoromethyl)biphenyl-4-ylamino)butyl)nicotinamide]
120 | O=C(O)CCNC(=O)c1ccc(NC(c2ccc(-c3ccc(C(F)(F)F)cc3)cc2)C2CCCOC2)nc1 (centres unmarked) [Example 4.34, 3-(6-((tetrahydro-2H-pyran-3-yl)(4′-(trifluoromethyl)biphenyl-4-yl)methylamino)nicotinamido)propanoic acid]
56 | O=C(O)CCNC(=O)c1ccc(NC(c2cnc(-c3ccc(C(F)(F)F)cc3)nc2)C2CCCC2)nc1 (centres unmarked) [Example 4.28, 3-(6-(cyclopentyl(2-(4-(trifluoromethyl)phenyl)pyrimidin-5-yl)methylamino)nicotinamido)propanoic acid]
300 | CC(C)CC(Nc1ccc(-c2ccc(C(F)(F)F)cc2)cc1)c1ccc(C(=O)NCCC(=O)O)cn1 (racemic) [Example 2.4, (+/−)-3-(6-(3-methyl-1-(4′-(trifluoromethyl)biphenyl-4-ylamino)butyl)nicotinamido)propanoic acid]
420 | CCCC(Nc1cnc(-c2ccc(C(F)(F)F)cc2)nc1)c1ccc(C(=O)NCCC(=O)O)cc1 (single isomer, unassigned; isomer 2) [Example 2.17, 3-(4-(1-(2-(4-(trifluoromethyl)phenyl)pyrimidin-5-ylamino)butyl)benzamido)propanoic acid, Isomer 2]
120 | CCCC(Nc1cnc(-c2ccc(C(F)(F)F)cc2)nc1)c1ccc(C(=O)NCCC(=O)O)cc1 (racemic) [Example 2.15, (+/−)-3-(4-(1-(2-(4-(trifluoromethyl)phenyl)pyrimidin-5-ylamino)butyl)benzamido)propanoic acid]
500 | CC(C)CC(Nc1ccc(-c2ccc(C(F)(F)F)cc2)cc1)c1ccc(C(=O)NCCC(=O)O)cn1 (single isomer, unassigned; isomer 2) [Example 2.6, 3-(6-(3-methyl-1-(4′-(trifluoromethyl)biphenyl-4-ylamino)butyl)nicotinamido)propanoic acid, Isomer 2]
130 | Cc1cc(NC(CC(C)C)c2ccc(C(=O)NCCC(=O)O)cn2)cnc1-c1ccc(C(F)(F)F)cc1 (racemic) [Example 2.8, (+/−)-3-(6-(3-methyl-1-(5-methyl-6-(4-(trifluoromethyl)phenyl)pyridin-3-ylamino)butyl)nicotinamido)propanoic acid]
66 | CCC[C@H](Nc1cnc(-c2ccc(C(F)(F)F)cc2)cn1)c1ccc(C(=O)NCCC(=O)O)cc1 [Example 4.4, (S)-3-(4-(1-((5-(4-(trifluoromethyl)phenyl)pyrazin-2-yl)amino)butyl)benzamido)propanoic acid]
1800 | CCC(Nc1cnc(-c2ccc(C(F)(F)F)cc2)c(C)c1)c1ccc(C(=O)NCCC(=O)O)cn1 (racemic) [Example 2.11, (+/−)-3-(6-(1-(5-methyl-6-(4-(trifluoromethyl)phenyl)pyridin-3-ylamino)propyl)nicotinamido)propanoic acid]
1900 | CC(C)CC(Nc1ccc(-c2ccc(C(F)(F)F)cc2)cc1)c1ccc(C(=O)Nc2nn[nH]n2)cn1 (racemic) [Example 2.13, (+/−)-6-(3-methyl-1-(4′-(trifluoromethyl)biphenyl-4-ylamino)butyl)-N-(2H-tetrazol-5-yl)nicotinamide]
67 | CC(C)C[C@H](Nc1ccc(C(=O)NCCC(=O)O)cn1)c1ccc(-c2ccc(C(F)(F)F)cn2)cc1 [Example 4.1, (S)—N-({6-[(3-methyl-1-{4-[5-(trifluoromethyl)pyridin-2-yl]phenyl}butyl)amino]pyridin-3-yl}carbonyl)-beta-alanine]
